Results as given in ChEMBL document CHEMBL1201862, “PubChem BioAssay data set” (2004).
Activity calls are given as the source filed them.

Legend:
SUMO-activating enzyme [1] = target: T1, SUMO-activating enzyme (Homo sapiens, UniProt Q9UBT2); experiment: SUMOylation inhibitor hit validation, confirmation, SUMOylation inhibitor project, biochemical, AlphaScreen (AID 2018); assay type: functional
Bcl-2-like protein 1 = Bcl-2-like protein 1 (Homo sapiens, UniProt Q07817); experiment: BCL-XL inhibitors, dose response, selectivity assay for MCL1 inhibitor project, biochemical, fluorescence polarization, 1536-well (AID 2218)
Bcl-2-like protein 1, sequence (Q07817 whole entry): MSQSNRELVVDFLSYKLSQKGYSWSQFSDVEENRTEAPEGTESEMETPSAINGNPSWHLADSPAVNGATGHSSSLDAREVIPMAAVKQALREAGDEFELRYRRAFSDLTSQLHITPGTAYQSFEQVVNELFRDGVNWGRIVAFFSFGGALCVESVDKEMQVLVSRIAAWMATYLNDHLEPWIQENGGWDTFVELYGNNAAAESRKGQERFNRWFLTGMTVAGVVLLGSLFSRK

[2] = target: Induced myeloid leukemia cell differentiation protein Mcl-1 (Homo sapiens, UniProt Q07820); experiment: MCL1-BIM BH3 interaction inhibitors, dose response, biochemical, fluorescence polarization, BIM-BH3 peptide, 1536-well (AID 2217)
Induced myeloid leukemia cell differentiation protein Mcl-1, sequence (Q07820 whole entry): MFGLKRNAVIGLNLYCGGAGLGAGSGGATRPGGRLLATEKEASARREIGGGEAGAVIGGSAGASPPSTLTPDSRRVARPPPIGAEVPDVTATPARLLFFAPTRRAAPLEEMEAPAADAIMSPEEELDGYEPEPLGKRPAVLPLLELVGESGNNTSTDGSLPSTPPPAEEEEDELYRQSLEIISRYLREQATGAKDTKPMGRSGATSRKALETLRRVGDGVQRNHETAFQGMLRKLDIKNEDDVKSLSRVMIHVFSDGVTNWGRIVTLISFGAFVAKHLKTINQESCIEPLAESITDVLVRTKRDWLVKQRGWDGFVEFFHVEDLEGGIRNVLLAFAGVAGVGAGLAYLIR

SUMO-activating enzyme [3] = target: T1, SUMO-activating enzyme; experiment: inhibitors of in vitro SUMOylation cascade, primary screen, biochemical, HTRF, uHTS (AID 2006); assay type: protein-complex assay
[4] = target: T2, Neuropeptide Y receptor type 2 (Homo sapiens, UniProt P49146); assay type: functional, cell-based;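 further: HEK293 cells expressing the receptor and a CNG channel; stimulus was NPY near EC95 followed by isoproterenol to raise cAMP; antagonist potency measured as restoring cAMP signal that NPY suppresses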
T2 sequence (P49146 whole entry): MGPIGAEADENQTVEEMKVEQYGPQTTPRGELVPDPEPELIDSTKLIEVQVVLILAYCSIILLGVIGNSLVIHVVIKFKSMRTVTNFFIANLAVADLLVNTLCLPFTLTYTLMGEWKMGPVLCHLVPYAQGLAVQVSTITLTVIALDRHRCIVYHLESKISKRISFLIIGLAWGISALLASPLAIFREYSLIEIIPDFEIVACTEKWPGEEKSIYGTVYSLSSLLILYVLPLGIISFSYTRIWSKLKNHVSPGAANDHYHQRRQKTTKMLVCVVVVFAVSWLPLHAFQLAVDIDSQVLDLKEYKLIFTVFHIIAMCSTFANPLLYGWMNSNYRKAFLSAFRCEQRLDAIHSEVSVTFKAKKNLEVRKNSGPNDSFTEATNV

[5] = target: T3, Neuropeptide Y receptor type 1 (Homo sapiens, UniProt P25929); assay type: functional;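 further: HEK293 cells with a CNG channel challenged with NPY then isoproterenol; potency as antagonist that reverses NPY suppression of cAMP signal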
T3 sequence (P25929 whole entry): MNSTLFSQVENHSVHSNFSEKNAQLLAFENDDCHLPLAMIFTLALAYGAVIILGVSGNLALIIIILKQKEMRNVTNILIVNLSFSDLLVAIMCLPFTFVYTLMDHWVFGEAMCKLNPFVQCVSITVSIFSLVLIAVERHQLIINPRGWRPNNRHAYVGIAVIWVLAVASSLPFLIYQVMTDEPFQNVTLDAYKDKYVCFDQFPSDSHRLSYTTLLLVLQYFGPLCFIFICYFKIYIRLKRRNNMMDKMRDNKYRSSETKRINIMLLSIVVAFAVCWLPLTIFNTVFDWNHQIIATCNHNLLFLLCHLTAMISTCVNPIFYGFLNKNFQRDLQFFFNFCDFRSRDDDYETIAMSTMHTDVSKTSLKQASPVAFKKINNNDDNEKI

[6] = Luminescence Cell-Based Dose Response to Identify Activators of Luciferase Translation or Activity in H4-C Neuroglioblastoma Cells. [Related pubchem assays: 1829 (Project Summary), 1814 (Primary HTS)]; assay type: functional
H4 = experiment: Luminescence Cell-Based Dose Response HTS to Identify Activators of 5'UTR Stem-Loop Driven Prion Protein mRNA Translation in H4 Neuroglioblastoma Cells. [Related pubchem assays: 1829 (Project Summary), 1814 (Primary HTS)]; assay type: functional; settings: Homo sapiens
[7] = Luminescence Cell-Based Dose Response to Identify Activators of 5'UTR Stem-Loop Driven Prion Protein mRNA Translation in H4-C Neuroglioblastoma Cells. [Related pubchem assays: 1829 (Project Summary), 1814 (Primary HTS)]; assay type: functional
[8] = Luminescence Cell-Based Dose Confirmation to Identify Activators of 5'UTR Stem-Loop Driven Alpha-Synuclein mRNA Translation in H4 Neuroglioblastoma Cells. [Related pubchem assays: 1829 (Project Summary), 1814 (Primary HTS)]; assay type: functional
[9] = Luminescence Cell-Based Dose Response HTS to Identify Activators of Luciferase Translation or Activity in H4 […] Cells. [Related pubchem assays: 1829 (Project Summary), 1814 (Primary HTS)]; assay type: functional
[10] = target: Melanin-concentrating hormone receptor 1 (Homo sapiens, UniProt Q99705); experiment: Fluorescence-based counterscreen for antagonists of the G-protein coupled receptor 7 (GPR7): cell-based high throughput dose response assay to identify antagonists of the melanin-concentrating hormone receptor 1 (MCHR1).; assay type: functional
Melanin-concentrating hormone receptor 1, sequence (Q99705 whole entry): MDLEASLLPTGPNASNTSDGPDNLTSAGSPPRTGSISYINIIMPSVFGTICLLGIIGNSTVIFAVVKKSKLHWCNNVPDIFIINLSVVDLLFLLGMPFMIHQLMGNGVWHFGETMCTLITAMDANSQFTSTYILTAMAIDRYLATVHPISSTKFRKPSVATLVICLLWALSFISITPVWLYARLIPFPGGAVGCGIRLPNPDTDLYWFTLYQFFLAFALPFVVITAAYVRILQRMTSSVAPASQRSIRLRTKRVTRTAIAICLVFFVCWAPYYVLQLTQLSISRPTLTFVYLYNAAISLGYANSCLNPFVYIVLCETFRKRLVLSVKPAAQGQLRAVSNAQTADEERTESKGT

[11] = target: T4, Neuropeptides B/W receptor type 1 (Homo sapiens, UniProt P48145); experiment: Fluorescence-based dose response cell-based high throughput screening assay to identify antagonists of the G-protein coupled receptor 7 (GPR7). [Related pubchem assays: 1952 (Screening assay (GPR7 antagonists).), 1880 (Summary AID.)]; assay type: functional
T4 sequence (P48145 whole entry): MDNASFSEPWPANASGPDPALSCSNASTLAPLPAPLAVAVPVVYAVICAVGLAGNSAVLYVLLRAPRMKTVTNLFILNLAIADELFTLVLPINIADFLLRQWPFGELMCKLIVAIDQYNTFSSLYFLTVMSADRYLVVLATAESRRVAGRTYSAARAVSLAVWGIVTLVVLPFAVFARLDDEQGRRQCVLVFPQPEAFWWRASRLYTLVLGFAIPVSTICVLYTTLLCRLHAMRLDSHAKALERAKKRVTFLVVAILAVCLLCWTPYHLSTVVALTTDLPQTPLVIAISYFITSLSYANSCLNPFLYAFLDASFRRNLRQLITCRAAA

[12] = A cytotoxicity screen of small molecule inhibitors of the PhoP region in Salmonella typhi identified in the primary screen. [Related pubchem assays: 1850, 1864, 1985 ]; assay type: functional
[13] = NIH-3T3 fibroblast cytotoxicity, dose response, cytotoxicity control, cell-based, fluorescence, Alamar Blue, secondary assay (AID 2327); assay type: functional;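 further: NIH-3T3 mouse fibroblasts cultured with fluconazole at 8 µg/mL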
[14] = Luminescence-based counterscreen assay for KLF5 inhibitors: dose response cell-based high throughput screening assay to identify cytotoxic compounds using the IEC-6 intestinal epithelial cell line. [Related pubchem assays: 1700 (Primary screen.), 1834 (Confirmation screen.), 1858 (Summary AID.), 1905 (Counterscreen.)]; assay type: functional
cells [15] = assay type: functional, cell-based
[16] = C. albicans growth with fluconazole, confirmation, fluorescence, retest (AID 2467); assay type: functional, cell-based
cells [17] = assay type: functional, cell-based; remark: listed apart in the source
[18] = target: T5, Heat shock factor protein 1 (Mus musculus, UniProt P38532); experiment: inhibition of MG132-induced HSE-luciferase signal, confirmation, cell-based, NIH3T3, luminescence, dose retest (AID 2382); assay type: functional;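 further: NIH3T3 fibroblasts with HSF1-driven luciferase reporter stressed by proteasome inhibitor MG132; luminescence from HSF1-driven luciferase expression after 8 hours of MG132 stress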
T5 sequence (P38532 whole entry): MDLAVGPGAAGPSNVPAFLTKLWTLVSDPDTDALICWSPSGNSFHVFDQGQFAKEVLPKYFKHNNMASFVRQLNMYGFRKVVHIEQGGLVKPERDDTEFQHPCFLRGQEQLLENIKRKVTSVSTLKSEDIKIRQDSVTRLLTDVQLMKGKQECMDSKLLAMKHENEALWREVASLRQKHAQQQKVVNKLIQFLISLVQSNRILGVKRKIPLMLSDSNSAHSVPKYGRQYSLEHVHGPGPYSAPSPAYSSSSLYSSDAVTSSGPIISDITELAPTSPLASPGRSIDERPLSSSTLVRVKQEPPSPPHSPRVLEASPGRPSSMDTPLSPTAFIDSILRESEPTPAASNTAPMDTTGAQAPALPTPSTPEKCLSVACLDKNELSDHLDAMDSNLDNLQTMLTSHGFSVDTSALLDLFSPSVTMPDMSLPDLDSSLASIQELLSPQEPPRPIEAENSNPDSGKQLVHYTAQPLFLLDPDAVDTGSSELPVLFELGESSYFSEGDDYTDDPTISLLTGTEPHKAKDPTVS

[19] = inhibitors of intracellular T. cruzi replication, confirmation, NIH3T3 host cells, beta-gal luminescence (AID 2044); assay type: functional, cell-based;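 further: intracellular parasites grown in NIH/3T3 mouse fibroblasts as host cells; luminescent beta-galactosidase reporter signal from transgenic T. cruzi replicating inside host cells; inhibitors lower the luminescence signal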
[20] = cytotoxicity toward NIH3T3 fibroblasts, dose response, counter-screen, cell-based, ATP luminescence, mouse fibroblasts (AID 2010); assay type: functional;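 further: cells exposed to compound for about 90 hours before reading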
Nonstructural protein 1 = Nonstructural protein 1 (Influenza A virus, UniProt Q194T2); assay type: functional, Influenza A virus (A/California/07/2009(H1N1))
Nonstructural protein 1, sequence (Q194T2 whole entry): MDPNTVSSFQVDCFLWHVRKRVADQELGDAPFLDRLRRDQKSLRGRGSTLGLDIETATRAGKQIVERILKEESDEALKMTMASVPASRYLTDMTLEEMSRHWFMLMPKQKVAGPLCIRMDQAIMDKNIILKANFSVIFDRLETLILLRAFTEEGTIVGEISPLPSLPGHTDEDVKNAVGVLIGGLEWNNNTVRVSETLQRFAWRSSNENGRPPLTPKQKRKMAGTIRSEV

INS1 = experiment: beta cell apoptosis inhibitors, cytokine rescue, dose response, luminescence, retest (AID 449756); assay type: functional, cell-based; settings: Rattus norvegicus;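 further: cell death triggered by IL-1 beta plus TNF-alpha plus IFN-gamma mixture; protective hits raise ATP signal compared with cytokine alone wells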
Paired box protein Pax-8 = Paired box protein Pax-8 (Homo sapiens, UniProt Q06710); experiment: inhibitors of PAX8-driven TPO luciferase reporter, dose response, RMG-I cells, cherry-pick (AID 687027); assay type: functional, cell-based;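 further: luciferase reporter driven by Pax8 target thyroperoxidase promoter measured by SteadyGlo luminescence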
Paired box protein Pax-8, sequence (Q06710 whole entry, the tested form may be a part): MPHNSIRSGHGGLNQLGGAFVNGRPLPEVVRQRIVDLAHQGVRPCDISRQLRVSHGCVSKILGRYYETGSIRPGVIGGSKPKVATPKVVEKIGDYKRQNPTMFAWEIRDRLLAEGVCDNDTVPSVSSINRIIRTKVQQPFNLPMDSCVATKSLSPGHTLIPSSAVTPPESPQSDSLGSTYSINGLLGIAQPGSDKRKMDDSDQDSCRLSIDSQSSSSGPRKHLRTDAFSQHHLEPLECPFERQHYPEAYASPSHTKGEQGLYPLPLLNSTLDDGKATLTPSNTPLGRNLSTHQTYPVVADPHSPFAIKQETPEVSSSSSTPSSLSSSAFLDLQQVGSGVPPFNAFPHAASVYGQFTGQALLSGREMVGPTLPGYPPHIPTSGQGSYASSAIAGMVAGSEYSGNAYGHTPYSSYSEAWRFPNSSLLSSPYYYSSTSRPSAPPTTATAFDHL

[21] = ZM109 Env clade C HIV-1 fusion inhibitors, dose response, HeLa effector, CEM target cells, luciferase, cherry-pick (AID 652058); assay type: functional, cell-based
[22] = inhibitors of clade B AD8 Env fusion, dose response, cell-based, cherry-pick (AID 652062); assay type: functional;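 further: luciferase signal from cell-cell fusion driven by HIV-1 clade B AD8 Env; potency is for inhibitors of fusion seen as a drop in luminescence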
[23] = off-target signal loss in HeLa-CEM21 co-culture – HeLa F-luc CTL cells, cherry-picked, counter-screen for HIV-1 Env fusion inhibitor project, dose response (AID 652040); assay type: functional, cell-based;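 further: potency for signal decrease marking cytotoxic or nonspecific inhibition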
[24] = CEM21 lymphoblast cell cytotoxicity, dose response, cytotoxicity control for viral fusion inhibitor project, CellTiter-Glo luminescence, cherry-picked (AID 652042); assay type: functional, cell-based;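 further: potency for signal decrease meaning cytotoxicity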
[25] = inhibitors of HIV Env-driven cell fusion, dose response, cherry-pick (AID 652057); assay type: functional, cell-based
fMet-Leu-Phe receptor = fMet-Leu-Phe receptor (Homo sapiens, UniProt P21462); experiment: FPR ligands, dose response (AID 519); assay type: functional
fMet-Leu-Phe receptor, sequence (P21462 whole entry): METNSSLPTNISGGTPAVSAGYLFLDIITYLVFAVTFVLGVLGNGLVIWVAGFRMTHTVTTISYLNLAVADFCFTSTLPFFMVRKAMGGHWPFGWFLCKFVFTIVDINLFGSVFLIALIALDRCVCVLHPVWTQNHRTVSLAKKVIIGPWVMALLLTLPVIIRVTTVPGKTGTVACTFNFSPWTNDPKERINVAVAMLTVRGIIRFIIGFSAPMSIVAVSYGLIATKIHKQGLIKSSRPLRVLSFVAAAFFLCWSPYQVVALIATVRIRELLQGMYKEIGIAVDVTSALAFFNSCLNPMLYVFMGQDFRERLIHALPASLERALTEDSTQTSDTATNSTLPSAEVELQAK

Estrogen receptor beta [26] = target: T6, Estrogen receptor beta (Homo sapiens, UniProt Q92731);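 further: recombinant ER-beta bound to coactivator SRC1 peptide in presence of estradiol agonist; inhibitors block coactivator peptide binding and lower the FRET signal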
T6 sequence (Q92731 whole entry): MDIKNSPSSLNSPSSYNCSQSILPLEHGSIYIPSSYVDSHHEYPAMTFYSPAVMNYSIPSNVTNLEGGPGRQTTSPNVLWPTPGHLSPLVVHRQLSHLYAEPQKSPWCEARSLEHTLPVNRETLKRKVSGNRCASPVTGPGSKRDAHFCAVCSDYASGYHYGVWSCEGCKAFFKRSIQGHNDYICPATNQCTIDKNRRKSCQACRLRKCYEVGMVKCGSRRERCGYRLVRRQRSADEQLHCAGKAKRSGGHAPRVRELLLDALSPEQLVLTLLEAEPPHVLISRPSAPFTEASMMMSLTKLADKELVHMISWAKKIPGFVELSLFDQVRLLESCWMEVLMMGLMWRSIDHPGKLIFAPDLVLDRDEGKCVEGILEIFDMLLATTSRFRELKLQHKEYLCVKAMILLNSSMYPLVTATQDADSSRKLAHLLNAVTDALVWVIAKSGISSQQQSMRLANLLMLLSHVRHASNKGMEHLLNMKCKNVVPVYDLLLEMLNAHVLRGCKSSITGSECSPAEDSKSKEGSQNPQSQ

Estrogen receptor beta [27] = target: T6, Estrogen receptor beta; experiment: ERβ–SRC-3 coactivator interaction inhibitors, confirmation, orthogonal assay, biochemical, ELISA, streptavidin-HRP readout (AID 1060)

T1 sequence (Q9UBE0 whole entry): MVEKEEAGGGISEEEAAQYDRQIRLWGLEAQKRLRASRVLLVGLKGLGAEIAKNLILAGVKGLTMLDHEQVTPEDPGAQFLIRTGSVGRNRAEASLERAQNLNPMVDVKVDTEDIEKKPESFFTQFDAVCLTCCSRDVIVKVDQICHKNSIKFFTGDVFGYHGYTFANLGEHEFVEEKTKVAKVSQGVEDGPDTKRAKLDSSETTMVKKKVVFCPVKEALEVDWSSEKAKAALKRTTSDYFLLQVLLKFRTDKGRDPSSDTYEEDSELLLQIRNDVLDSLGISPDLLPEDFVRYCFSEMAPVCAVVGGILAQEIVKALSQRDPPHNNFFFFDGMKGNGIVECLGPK
T1 sequence (Q9UBT2 whole entry): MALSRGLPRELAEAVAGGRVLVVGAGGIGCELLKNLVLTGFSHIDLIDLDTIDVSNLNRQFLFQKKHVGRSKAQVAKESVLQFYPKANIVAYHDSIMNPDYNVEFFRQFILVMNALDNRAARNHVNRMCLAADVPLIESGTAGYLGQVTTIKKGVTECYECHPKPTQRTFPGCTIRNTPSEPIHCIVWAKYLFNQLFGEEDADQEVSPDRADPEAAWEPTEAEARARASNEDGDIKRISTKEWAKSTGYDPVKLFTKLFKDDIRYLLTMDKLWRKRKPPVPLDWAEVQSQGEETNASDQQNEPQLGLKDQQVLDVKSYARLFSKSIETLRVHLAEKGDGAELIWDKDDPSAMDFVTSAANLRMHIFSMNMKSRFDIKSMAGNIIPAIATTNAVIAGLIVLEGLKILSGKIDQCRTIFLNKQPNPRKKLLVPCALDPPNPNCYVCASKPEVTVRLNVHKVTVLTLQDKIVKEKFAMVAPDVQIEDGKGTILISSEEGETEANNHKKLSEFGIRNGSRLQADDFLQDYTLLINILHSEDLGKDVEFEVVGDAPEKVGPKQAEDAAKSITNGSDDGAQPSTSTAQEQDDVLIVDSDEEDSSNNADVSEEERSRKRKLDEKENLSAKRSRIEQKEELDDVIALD

O=C1NC(=O)N(Cc2ccco2)C(=O)/C1=C/c1ccc(-c2cccc([N+](=O)[O-])c2)o1
IC50 (SUMO-activating enzyme [1]): 6.08 µM (active)
IC50 (Bcl-2-like protein 1): 17.6 µM (not active)
IC50 [2]: 9.6 µM (active)
IC50 (SUMO-activating enzyme [3]): 22.4 µM (active)

Clc1ccc(OCCSc2nnnn2C2CCCCC2)cc1
IC50 [4]: 14.2 µM (not active)
IC50 [5]: 9.04 µM (active)

COc1cccc(-c2nc(O)c3c4c(sc3n2)CCCCC4)c1
EC50 [6]: 1.36 µM (active)
EC50 (H4): 11.6 µM (active)
EC50 [7]: 0.37 µM (active)
EC50 [8]: 0.303 µM (active)
EC50 [9]: < 0.1 µM (active)

N#Cc1ccc(-c2cccnc2)nc1SCc1ccc(Cl)c(Cl)c1
IC50 [4]: 5.19 µM (active)
IC50 [5]: 5.69 µM (active)

Cc1ccc(NC(Cc2cc(C)no2)c2ccccc2)cc1 (centres undefined)
IC50 [10]: 19.8 µM (not active)
IC50 [11]: 9.47 µM (active)

Cc1cc2cc(CNC(=O)C(C)Oc3ccccc3)ccc2n1C (centres undefined)
EC50 [12]: > 50 µM (active)

CCNC(=O)c1ccc(C2SCC(=O)N2CCc2ccccc2)cc1 (centres undefined)
EC50 [12]: > 50 µM (active)

COc1ccccc1N1CCN(Cc2cc(Br)c(O)c3ncccc23)CC1
EC50 [13]: 19.4 µM (inconclusive)
IC50 [14]: 6.32 µM (active)
EC50 (cells [15]): 8.13 µM (active)
EC50 [16]: 2.22 µM (active)
EC50 (cells [17]): > 350 µM (not active)
EC50 [18]: 0.482 µM (active)
EC50 [19]: 1.34 µM (active)
EC50 [20]: 6.15 µM (active)
IC50 (Nonstructural protein 1): 15.4 µM (active)
AC50 (INS1): 3.95 µM (active)
AC50 (Paired box protein Pax-8): 1.82 µM (active)

Clc1ccc(C2CC(c3cccs3)n3ncnc3N2)cc1Cl (centres undefined)
AC50 [21]: 7.81 µM (active)
IC50 [10]: 16 µM (not active)
AC50 [22]: 6.95 µM (active)
AC50 [23]: 7.08 µM (active)
AC50 [24]: 56.8 µM (active)
IC50 [11]: > 4.87 µM (active)
AC50 [25]: 7.3 µM (active)
Ki (fMet-Leu-Phe receptor): > 66.7 µM (inactive)

CCOC(=O)C1=C(C)NC(=O)NC1c1ccco1 (centres undefined)
IC50 (Estrogen receptor beta [26]): 9.28 µM (active)
IC50 (Estrogen receptor beta [27]): < 0.023 µM (not active)

O=C(CNc1cccc2ccccc12)N/N=C/c1ccc(C(=O)O)cc1
IC50 (Bcl-2-like protein 1): > 109 µM (not active)
IC50 [2]: 26.6 µM (not active)

Cc1ccc(-c2c(C)s/c(=N\C(=O)c3ccco3)n2C)cc1
EC50 [6]: 0.354 µM (active)
EC50 [7]: 0.469 µM (active)
EC50 [8]: > 12 µM (not active)
EC50 [9]: < 0.1 µM (active)
